In patent US12319891B2, “Method for releasing aldehyde or ketone” (TAKASAGO INTERNATIONAL CORPORATION, priority 2017, dated 2025):

Key:
[1] = biological target: T1, lipase preparation Lipex 100 L produced by Novozymes (Thermomyces lanuginosus, UniProt O59952, N255R/T253R); test: LIPASE-induced fragrance emission test (Lipex 100 L); assay type: biochemical; conditions: GC/MS head space peak area of released compound minus water control; 10 mg compound in 1 g aqueous 1% Lipex 100L; released: menthone (1-1), hexenal (1-2), citral (1-3)
T1 construct: purchased Novozymes Lipex 100 L
T1 sequence (O59952 23-291 T253R/N255R): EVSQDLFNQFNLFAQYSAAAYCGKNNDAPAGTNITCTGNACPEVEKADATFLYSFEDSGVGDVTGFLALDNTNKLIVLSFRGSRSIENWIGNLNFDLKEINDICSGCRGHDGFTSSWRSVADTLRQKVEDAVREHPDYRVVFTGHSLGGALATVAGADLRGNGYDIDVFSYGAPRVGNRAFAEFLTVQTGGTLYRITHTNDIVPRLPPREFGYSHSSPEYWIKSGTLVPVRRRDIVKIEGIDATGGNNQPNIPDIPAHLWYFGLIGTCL
Description: (§1) 10 mg of each of the compounds of Examples 1-1 to 1-3 and 1 g of an aqueous 1% lipase preparation solution were charged in a vial bottle and mixed and after hermetically sealing the bottle, the mixture was subjected to GC/MS analysis of the head space component to obtain a peak area of the fragrance emitting compound. As a control, water was used in place of the aqueous 1% lipase preparation solution, and the peak area of the control was obtained by the same method.
(§2) The fragrance emission amount was determined from the difference between the peak area of the obtained fragrance emitting compound and the peak area of the control. As the lipase preparation, Lipex 100 L produced by Novozymes, and AY “Amano” 30SD produced by Amano Enzyme Inc. were used.
(§3) • Measuring apparatus: 7890GC/5975MSD (manufactured by Agilent Technologies) • Column: BC-WAX 50 m×0.25 mm I.D. • Temperature rise: 70° C.→220° C., 4° C./min • Split ratio: 60:1

[2] = test system: Bacillus subtilis strain NBRC3134; test: Deodorizing component emission test by microorganism; assay type: cell-based; conditions: GC/MS head space peak area minus control; 10 mg in 3 mL culture solution, 30° C. 20 hours; released: hexenal (2-2), citronellal (2-3)
Description: (§4) Culture of Staphylococcus aureus strain NBRC12732, Staphylococcus epidermidis strain JCM2414T, Corynebacterium xerosis strain JCM1324, Pseudomonas aeruginosa strain NBRC13275, Bacillus subtilis strain NBRC3134, and Moraxella osloensis strain ATCC19976:
(§5) After inoculating each of bacteria in Muller-Hinton liquid medium, shaking culture was performed at 30° C. for 20 hours. 3 mL of the resulting preculture solution was transferred to a vial bottle, and 10 mg of each of the compounds of Examples 2-2 to 2-6 was mixed, followed by hermetically sealing the bottle. Thereafter, shaking culture was further performed at 30° C. for 20 hours.
(§6) A peak area of the deodorizing compound was obtained by performing GC/MS analysis of the head space component contained in the vial bottle having 3 mL of microorganism culture solution in which 10 mg of each of the compound of Examples 2-2 to 2-6 was mixed. A microorganism culture solution having not mixed therein each of the compounds of Examples 2-2 to 2-6 was used as the control, and a peak area of the control was obtained by the same method as above.
(§7) The difference between the peak area of the deodorizing compound and the peak area of the control was calculated as the deodorizing component emission amount, and the results are shown in Tables 10 to 12.
(§8) • Measuring apparatus: 7890GC/5975MSD (manufactured by Agilent Technologies) • Column: BC-WAX 50 m×0.25 mm I.D. • Temperature rise: 70° C.→220° C., 4° C./min • Split ratio: splitless

[3] = test system: Corynebacterium xerosis strain JCM1324; test: as above; assay type: cell-based; conditions: GC/MS head space peak area minus control; 10 mg in 3 mL culture solution, 30° C. 20 hours; released: hexenal (2-2), citronellal (2-3)
Description: as §4, §5, §6, §7, §8

[4] = test system: Moraxella osloensis strain ATCC19976; test: as above; assay type: cell-based; conditions: GC/MS head space peak area minus control; 10 mg in 3 mL culture solution, 30° C. 20 hours; released: hexenal (2-2), citronellal (2-3)
Description: as §4, §5, §6, §7, §8

[5] = test system: Pseudomonas aeruginosa strain NBRC13275; test: as above; assay type: cell-based; conditions: GC/MS head space peak area minus control; 10 mg in 3 mL culture solution, 30° C. 20 hours; released: hexenal (2-2), citronellal (2-3)
Description: as §4, §5, §6, §7, §8

[6] = test system: Staphylococcus epidermidis strain JCM2414T; test: as above; assay type: cell-based; conditions: GC/MS head space peak area minus control; 10 mg in 3 mL culture solution, 30° C. 20 hours; released: hexenal (2-2), citronellal (2-3)
Description: as §4, §5, §6, §7, §8

[7] = test system: Propionibacterium acnes strain JCM6473; test: as above; assay type: cell-based; conditions: GC/MS head space peak area minus control; 10 mg in 3 mL culture solution, static culture 28° C. 3 days; released: hexenal (2-2), citronellal (2-3)
Description: (§9) After inoculating bacteria in GAM bouillon liquid medium containing Hemin 0.5 ppm and Menadione 0.5 ppm, static culture was performed at 28° C. for 3 days under anaerobic conditions. 3 mL of the resulting preculture solution was transferred to a vial bottle, and 10 mg of each of the compounds of Examples 2-2 to 2-6 was mixed, followed by hermetically sealing the bottle. Thereafter, static culture was further performed at 28° C. for 3 days.
as §6, §7, §8

[8] = test system: lipase preparation AY "Amano" 30SD produced by Amano Enzyme Inc.; test: LIPASE-induced fragrance emission test (AY "Amano" 30SD); assay type: biochemical; conditions: GC/MS head space peak area of released citral minus water control; 10 mg compound in 1 g aqueous 1% AY "Amano" 30SD
Description: as §1, §2, §3

[9] = test system: Staphylococcus aureus strain NBRC12732; test: Deodorizing component emission test by microorganism; assay type: cell-based; conditions: GC/MS head space peak area minus control; 10 mg compound in 3 mL culture solution, 30° C. 20 hours; released: citronellal (2-3), 2,6-dimethyl-5-heptenal (2-4), trimethylhexanal (2-5), octanal (2-6)
Description: as §4, §5, §6, §7, §8

[10] = test system: Malassezia furfur strain NBRC0656; test: as above; assay type: cell-based; conditions: GC/MS head space peak area of trimethylhexanal minus control; 10 mg in 3 mL culture solution, static culture 28° C. 3 days
Description: as §9, with “Sabouraud” for “GAM bouillon”, “0.1% Tween 80,” for “Hemin 0.5 ppm and Menadione 0.5 ppm,”
as §6, §7, §8

For `CC(C)C1=C(OC(=O)c2ccccc2)C[C@H](C)CC1` [Example 1-1, 2-isopropyl-5-methyl-1-cyclohexenyl Benzoate], which Fragrance emission amount [1] is on record?
Its Fragrance emission amount is 76,407,359.

With `CCC=CC=COC(=O)c1ccccc1` [Example 1-2, 1,3-hexadienyl Benzoate] as the compound, how does the Fragrance emission amount [1] read?
The Fragrance emission amount was 12,076,381.

What about the “Deodorizing component emission amount” value [2] of the same compound?
The value was 106,596,512.

What about the “Deodorizing component emission amount” value [3] of the same compound?
The value was 15,168,728.

What about the “Deodorizing component emission amount” value [4] of the same compound?
Its value is 8,864,491.

What about the “Deodorizing component emission amount” value [5] of the same compound?
Its value is 10,638,380.

What about the “Deodorizing component emission amount” value [6] of the same compound?
The value was 17,179,106.

What about the “Deodorizing component emission amount” value [7] of the same compound?
Its value is 3,265,759.

What does the source list for `CC(C)=CCC=C(C)C=COC(=O)c1ccccc1` [Example 1-3, 3,7-dimethylocta-1,3,6-trienyl Benzoate]?
Fragrance emission amount [1]: 5,098,870; Fragrance emission amount [8]: 16,031,669

What does the source list for `CC(C)=CCCC(C)C=COC(=O)c1ccccc1` (stereo not drawn) [Example 2-3, 3,7-dimethylocta-1,6-dienyl Benzoate]?
Deodorizing component emission amount [2]: 66,939,425; Deodorizing component emission amount [3]: 692,091,257; Deodorizing component emission amount [4]: 25,608,586; Deodorizing component emission amount [5]: 42,891,551; Deodorizing component emission amount [9]: 1,064,240,572; Deodorizing component emission amount [6]: 76,886,509; Deodorizing component emission amount [7]: 15,450,553

With `CC(C)=CCCC(C)=COC(=O)c1ccccc1` [Example 2-4, 2,6-dimethylhepta-1,5-dienyl Benzoate] as the compound, how does the “Deodorizing component emission amount” value [9] read?
The value was 132,554,000.

Which “Deodorizing component emission amount” value [9] does the source give for `CC(C=COC(=O)c1ccccc1)CC(C)(C)C` (stereo not drawn) [Example 2-5, 3,5,5-trimethyl-1-hexenyl Benzoate] here?
Its value is 189,916,125.

And the “Deodorizing component emission amount” value [10]?
Its value is 19,153,037.

With `CCCCCCC=COC(=O)c1ccccc1` [Example 2-6, 1-octenyl Benzoate] as the compound, how does the “Deodorizing component emission amount” value [9] read?
The value was 129,928,279.
